Laboratory results published in patent US20040253576A1 (priority 2003, published 2004).
Entries after “also recorded” stand apart in the source; their conditions may differ. Read-outs that look alike come from different tables or passages of the source.

Key:
MSNs from the NAcb shell [1] = format: cell-based, Sprague-Dawley rats; details: for effect on DA-mediated changes in spike firing / effect on spike firing, intracellular perfusion alone: 1 μM, intracellular perfusion; for effect on increase in spike firing elicited by D1/D2 co-activation: dialysis of neurons; for effect on activation of spike firing by forskolin: peptide in intracellular solution
[2] = system: total potassium currents, comprised of IAs, delayed-rectifier, and non-inactivating potassium currents; assay: voltage-clamp measurement of total evoked potassium current; format: cell-based, Sprague-Dawley rats
MSNs from the NAcb shell [3] = system: MSNs from the NAcb shell
Method: Patch-clamping was performed using visualized infrared-DIC with 2.5 to 3.5 MΩ electrodes. Current pulses were applied using Clampex 8.0 and an Axo-1D patch amplifier in current-clamp mode (Axon Instruments, Foster City, Calif.). Upon breaking into neurons, the resting membrane potentials were between −95 and −80 mV. […] Series resistance correction was 15-20 MΩ. To record EPSPs, a bipolar stimulating electrode was placed ˜100 μM lateral to the recording electrode. Afferents were stimulated with 10 pulses at 20 Hz (20 μs) every 30 seconds using a Master 8 (AMPI, Jerusalem, Israel), and EPSPs were recorded using Clampex in current-clamp mode.
We also performed a within-cell comparison of the spike firing change and the change in input resistance or Vm-rest.

Molecule: Nc1ccncc1 [4-AP, 4-aminopyridine]
- effect on DA-mediated enhancement of spike firing (occlusion) (MSNs from the NAcb shell [1]; 60 μM pre-exposure): significantly occluded the effects of DA
- effect on spike firing (MSNs from the NAcb shell [1]; 5-60 μM): increased spike firing in a dose-dependent manner; also recorded: significantly enhanced spike firing
- change in spike firing with DA after pre-exposure to IAs inhibitor (MSNs from the NAcb shell [1]; inhibitor 10 μM): 11.4+/−5.1%
- effect on potassium current evoked by a 300 ms pulse to 0 mV ([2]; 10 μM): small but significant inhibition

Molecule: NCCc1ccc(O)c(O)c1 [DA, Dopamine]
- effect on spike firing (MSNs from the NAcb shell [1]): significantly and reversibly elevated spike firing
- enhancement in spike firing by DA with calcium channels blocked (MSNs from the NAcb shell [1]; pre-incubation with ω-conotoxin GVIA 500 nM and ω-agatoxin IVA 250 nM, continuous nifedipine 30 μM): 24.0+/−5.0%
- effect on input resistance (R-input) (MSNs from the NAcb shell [3]): no significant changes
- effect on resting membrane potential (Vm-rest) (MSNs from the NAcb shell [3]): no significant changes
- effect on potassium current evoked by a 300 ms pulse to 0 mV ([2]; 75 μM): small but significant inhibition

Molecule: CCCN1CCc2cccc3c2[C@H]1Cc1ccc(O)c(O)c1-3 [NPA, propylnorapomorphine]
- effect on spike firing, agonist alone (MSNs from the NAcb shell [1]; 3 μM, alone): not altered

Molecule: Nc1ncnc2c1ncn2[C@@H]1O[C@@H]2CO[P@@](O)(=S)O[C@H]2[C@H]1O [Rp-cAMPS]
- effect on spike firing when added during the DA response (MSNs from the NAcb shell [1]; 100 μM, during plateau DA response): significantly reduced spike firing to pre-DA levels

Molecule: CN1CCc2cc(Cl)c(O)cc2[C@@H](c2ccccc2)C1 [SCH 23990]
- change in spike firing with DA after pre-exposure to antagonist (MSNs from the NAcb shell [1]; antagonist 1 μM, pre-exposure): −0.5+/−4.6%

Molecule: Oc1cc2c(c(Cl)c1O)CCNCC2c1ccccc1 (stereo not shown) [SKF 81297]
- effect on spike firing in cells perfused with Gβγ (MSNs from the NAcb shell [1]; 10 μM, intracellular Gβγ subunits 20 nM): significantly enhanced spike firing
- effect on spike firing, agonist alone (MSNs from the NAcb shell [1]; 1-10 μM, alone): not altered
- change in spike firing in neurons perfused with Gβγ vehicle plus maltose binding protein (MSNs from the NAcb shell [1]; control perfusion without Gβγ): −2.5+/−2.5%

Molecule: CC(N)Cc1ccccc1 (stereo not shown) [amphetamine]
- change in spike firing (MSNs from the NAcb shell [1]; 10 μM, bath application): 18.5+/−5.4%

Molecule: C=C[C@@]1(C)CC(=O)[C@@H]2[C@@]3(C)CCCC(C)(C)[C@@H]3[C@H](O)[C@H](OC(C)=O)[C@@]2(C)O1 [dideoxy-forskolin]
- effect on spike firing (MSNs from the NAcb shell [1]; 5 μM): had no effect

Molecule: CCc1cc(Cl)c(OC)c(C(=O)NC[C@@H]2CCCN2CC)c1O [eticlopride]
- change in spike firing with DA after pre-exposure to antagonist (MSNs from the NAcb shell [1]; antagonist 300 nM, pre-exposure): 2.5+/−5.5%
- effect on DA-mediated enhancement of spike firing (MSNs from the NAcb shell [1]; antagonist 3 μM, pre-exposure): prevented

Molecule: N[C@@H](CCC(=O)O)C(=O)O [glutamate]
- effect on spike rate after exposure to 60 μM 4-AP (MSNs from the NAcb shell [1]; 200 μM, after 60 μM 4-AP): further increased spike rate

Molecule: C=C1[C@@H](O)[C@@H]2O[C@]3(CC[C@H](/C=C/[C@@H](C)[C@@H]4CC(C)=C[C@@]5(O[C@H](C[C@@](C)(O)C(=O)O)CC[C@H]5O)O4)O3)CC[C@H]2O[C@@H]1[C@@H](O)C[C@H](C)[C@H]1O[C@@]2(CCCCO2)CC[C@H]1C [okadaic acid]
- effect on DA-mediated changes in spike firing (MSNs from the NAcb shell [1]): occluded
- effect on spike firing, intracellular perfusion alone (MSNs from the NAcb shell [1]): significantly enhanced
- firing change with okadaic acid in the presence of 4-AP (MSNs from the NAcb shell [1]; ˜13 minutes pre-exposure to 60 μM 4-AP): 16+/−4.3%

Molecule: CCCN1CCC[C@@H]2Cc3n[nH]cc3C[C@H]21 [quinpirole]
- effect on spike firing in cells perfused with Gβγ (MSNs from the NAcb shell [1]): not
- effect on spike firing, agonist alone (MSNs from the NAcb shell [1]): not altered
- effect on spike rate, agonist alone (MSNs from the NAcb shell [1]): no effect

Molecule: DALRIQMEERFMASNPSKVSYEPIT [SPβγ]
- effect on increase in spike firing elicited by D1/D2 co-activation (MSNs from the NAcb shell [1]; 200 μM): prevented
- effect on activation of spike firing by forskolin (MSNs from the NAcb shell [1]): not prevented

Molecule: Norokadaone
- effect on DA-mediated changes in spike firing (MSNs from the NAcb shell [1]): did not prevent the effects of DA
- effect on spike firing, intracellular perfusion alone (MSNs from the NAcb shell [1]): had no effect by itself

Molecule: YEDSYEDISAYLLSKNNAIPR [FVIII]
- effect on increase in spike firing elicited by D1/D2 co-activation (MSNs from the NAcb shell [1]; 200 μM): had no effect
- effect on activation of spike firing by forskolin (MSNs from the NAcb shell [1]): not prevented

Molecule: α-dendrotoxin (QPRRKLCILHRNPGRCYDKIPAFYYNQKKKQCERFDWSGCGGNSNRFKTIEECRRTCIG; UniProt P00980 1-59, looked up) [α-dtx]
- effect on spike firing (MSNs from the NAcb shell [1]; 0.5 μM): significantly enhanced spike firing
- effect on DA-mediated enhancement of spike firing (occlusion) (MSNs from the NAcb shell [1]; 0.5 μM pre-exposure): significantly occluded the effects of DA
